Laboratory results: article PMC7531004, “Discovery of gramicidin A analogues with altered activities by multidimensional screening of a one-bead-one-compound library” (Nature Communications, 2020)
Where a SMILES comes first, the peptide text is derived from it. [ ]: non-standard residue; d: D form. The star is where a group is joined. NHCH2CH2OH = OCCN*; For = O=C*

Experiments:
[1] = H+/Na+ transport assay of bead-derived peptides (one-point); type: biochemical; set-up: key: relative activity; mean of two control wells = 1.00; conditions: bead-derived peptide solution, EYPC/EYPG LUVs;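 further: relative to parent gramicidin A activity set to 1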
How it was run: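 Pyranine (1.0 mM)-loaded LUVs containing egg yolk phosphatidylglycerol were prepared by film hydration, sonication and extrusion, then mixed with diluted bead-derived peptide in 96-well format and vortexed 30 min at room temperature. Fluorescence was normalized between untreated LUVs (0%) and Triton X-100 lysis (100%).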

[2] = tested on: P388 mouse leukemia cells; conditions: 92 h
How it was run: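 P388 cells at 1 × 10^4 cells/mL (final) were exposed to library peptides (stocks diluted 250-fold in RPMI1640/10% FBS) for 92 h at 37 °C, 5% CO2. Viable cells were counted by WST-1/1-methoxy PMS (4 h), absorbance 415 nm, and expressed as cell viability (%).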

[3] = tested on: Streptococcus pyogenes SSI-9; assay: Antibacterial activity assay of bead-derived peptides (three concentrations); type: cell-based; set-up: key: +++: inhibition by the 640-fold diluted peptide solution; ++: inhibition by the 160-fold diluted solution; +: inhibition by the 40-fold diluted solution; -: no inhibition; conditions: S. pyogenes, bead-derived peptide solution, three concentrations
How it was run: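 Library peptide stock applied undiluted, 4-fold and 16-fold diluted in DMSO to S. pyogenes SSI-9 (2 × 10^5 CFU) in cation-adjusted Mueller Hinton broth with 5% laked horse blood. After 18 h at 37 °C, growth judged by visible cell precipitation.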

| Structure (SMILES) | H+/Na+ transport activity normalized against the value of 1 (1.00) [1] | cell viability/% [2] | antibacterial activity [3] |
| --- | --- | --- | --- |
| CC(C)C[C@@H](NC(=O)[C@H](C)NC(=O)CNC(=O)[C@@H](NC=O)C(C)C)C(=O)N[C@@H](C)C(=O)N[C@H](CC(C)C)C(=O)N[C@H](C(=O)N[C@@H](C(=O)N[C@@H](Cc1c[nH]c2ccccc12)C(=O)N[C@H](CC(C)C)C(=O)N[C@@H](Cc1c[nH]c2ccccc12)C(=O)N[C@@H](C(=O)N[C@@H](Cc1c[nH]c2ccccc12)C(=O)N[C@@H](C(=O)N[C@@H](Cc1c[nH]c2ccccc12)C(=O)NCCO)C(C)C)C(C)C)C(C)C)C(C)C [compound 9607] (For-VGA[dL]A[dL]V[dV]W[dL]W[dV]W[dV]W-NHCH2CH2OH) | 1.03 | 48.6% | + |
| CNC(=O)C[C@@H](NC(=O)[C@@H](NC(=O)[C@H](NC(=O)[C@H](C)NC(=O)[C@H](NC(=O)[C@H](C)NC(=O)CNC(=O)[C@@H](NC=O)C(C)C)C(C)C)C(C)C)C(C)C)C(=O)N[C@@H](Cc1c[nH]c2ccccc12)C(=O)N[C@H](CC(C)C)C(=O)N[C@@H](Cc1c[nH]c2ccccc12)C(=O)N[C@H](CC(C)C)C(=O)N[C@@H](Cc1c[nH]c2ccccc12)C(=O)N[C@H](CC(C)C)C(=O)N[C@@H](Cc1c[nH]c2ccccc12)C(=O)NCCO [compound 7437] (For-VGA[dV]A[dV]V[dD](NHMe)W[dL]W[dL]W[dL]W-NHCH2CH2OH) | 1.11 | 100.0% | - |
| CNC(=O)C[C@@H](NC(=O)[C@@H](NC(=O)[C@H](NC(=O)[C@H](C)NC(=O)[C@H](NC(=O)[C@H](C)NC(=O)CNC(=O)[C@@H](NC=O)C(C)C)C(C)C)C(C)C)C(C)C)C(=O)N[C@@H](Cc1c[nH]c2ccccc12)C(=O)N[C@H](CC(C)C)C(=O)N[C@@H](Cc1c[nH]c2ccccc12)C(=O)N[C@H](CC(C)C)C(=O)N[C@@H](Cc1c[nH]c2ccccc12)C(=O)N[C@H](CC(C)C)C(=O)N[C@@H](Cc1c[nH]c2ccccc12)C(=O)NCCO [compound 8982] (For-VGA[dV]A[dV]V[dD](NHMe)W[dL]W[dL]W[dL]W-NHCH2CH2OH) | 1.21 | 49.1% | - |
| CC(C)C[C@@H](NC(=O)[C@H](C)NC(=O)[C@H](NC(=O)[C@H](C)NC(=O)CNC(=O)[C@@H](NC=O)C(C)C)C(C)C)C(=O)N[C@H](C(=O)N[C@@H](C(=O)N[C@@H](Cc1c[nH]c2ccccc12)C(=O)N[C@H](CC(C)C)C(=O)N[C@@H](Cc1c[nH]c2ccccc12)C(=O)N[C@H](CC(C)C)C(=O)N[C@@H](Cc1c[nH]c2ccccc12)C(=O)N[C@H](CC(C)C)C(=O)N[C@@H](Cc1c[nH]c2ccccc12)C(=O)NCCO)C(C)C)C(C)C [compound 10593] (For-VGA[dV]A[dL]V[dV]W[dL]W[dL]W[dL]W-NHCH2CH2OH) | 1.10 | 38.5% | + |
| CNC(=O)C[C@@H](NC(=O)[C@@H](NC(=O)[C@@H](CC(C)C)NC(=O)[C@H](C)NC(=O)[C@@H](CC(C)C)NC(=O)[C@H](C)NC(=O)CNC(=O)[C@@H](NC=O)C(C)C)C(C)C)C(=O)N[C@@H](Cc1c[nH]c2ccccc12)C(=O)N[C@@H](C(=O)N[C@@H](Cc1c[nH]c2ccccc12)C(=O)N[C@@H](C(=O)N[C@@H](Cc1c[nH]c2ccccc12)C(=O)N[C@H](CC(C)C)C(=O)N[C@@H](Cc1c[nH]c2ccccc12)C(=O)NCCO)C(C)C)C(C)C [compound 11601] (For-VGA[dL]A[dL]V[dD](NHMe)W[dV]W[dV]W[dL]W-NHCH2CH2OH) | 1.23 | 98.9% | - |
